Reference: patent publication US20260265207A1, “DPP1 INHIBITORS WITH POLYCYCLIC LINKERS AND USES THEREOF” (Insmed Incorporated, priority 2023, published 2026)

What was measured:
DPP1 [1] = biological target: T1, DPP1 (Homo sapiens, UniProt P53634); test: Human DPP1 Enzyme IC50 Assay; format: biochemical; parameters: is first proteolytically processed into its mature form using recombinant human cathepsin L; purchased R&D Systems; conditions: activated recombinant human DPP1, H-Gly-Arg-AMC substrate 400 μM, pH 6.0
Description: Human DPP1 Enzyme IC50 Assay
Recombinant human DPP1 enzyme (R&D Systems; Minneapolis, MN) is first proteolytically processed into its mature form using recombinant human cathepsin L (R&D Systems) in a buffer consisting of 20 mM citric acid pH 4.5, 150 mM NaCl, 1 mM EDTA and 10 mM DTT. Test articles are applied to activated human DPP1 enzyme in Assay Buffer (25 mM MES pH 6.0, 50 mM NaCl, 5 mM DTT) in a total reaction volume of 125 μL. 25 μL of compound in Assay Buffer plus 5% DMSO is first added to 50 μL of activated human DPP1 enzyme at a concentration of 1 ng/μL and allowed to pre-incubate for 10 minutes at 37° C. after which 50 μL of 1000 μM H-Gly-Arg-AMC substrate (Bachem; St. Torrance, CA) is added, giving final substrate concentration of 400 μM and a final DMSO concentration of 1%. Substrate cleavage is measured for 90 minutes at 37° C., with fluorescence at Excitation/Emission 350/450 nm measured every 5 minutes. DPP1 concentration is interpolated based on its activity relative to a standard curve of activated human recombinant DPP1 enzyme. IC50 values for each compound are calculated via the XLFit (IDBS Version 5.3.1.3) Add-On to Microsoft Excel using the four parameter fit equation y={A+[(B−A)]/[1+((C/x)^D)]}, which appears as equation number 205 (4 Parameter Logistic Model or Sigmoidal Dose-Response Model) in XLFit. Default constraints are used for each Parameter. IC50 is defined as the compound concentration at which […] of enzyme activity is inhibited when compared to the no-compound control. The IC50 table is included in the table below.
Target sequence in this assay (P53634 25-134 limits assumed): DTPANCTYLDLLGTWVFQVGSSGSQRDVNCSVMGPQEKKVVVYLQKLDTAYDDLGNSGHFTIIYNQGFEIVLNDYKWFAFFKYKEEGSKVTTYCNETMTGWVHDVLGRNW
Target sequence in this assay (P53634 231-394 limits assumed): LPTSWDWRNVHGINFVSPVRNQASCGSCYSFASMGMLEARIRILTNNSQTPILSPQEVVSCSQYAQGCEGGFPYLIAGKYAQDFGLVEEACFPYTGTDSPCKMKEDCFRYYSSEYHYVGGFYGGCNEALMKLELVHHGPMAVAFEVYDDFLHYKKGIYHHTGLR
Target sequence in this assay (P53634 395-463 limits assumed): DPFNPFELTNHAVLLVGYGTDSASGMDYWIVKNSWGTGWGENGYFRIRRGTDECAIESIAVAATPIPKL

active mouse DPP1 enzyme = biological target: T2, active mouse DPP1 enzyme (Mus musculus, UniProt P97821); test: Mouse DPP1 Enzyme IC50 Assay; format: biochemical; conditions: active mouse DPP1, H-Gly-Arg-AMC substrate 400 μM, pH 5.5
T2 construct: Test articles are applied to active mouse DPP1 enzyme; purchased R&D Systems
Description: Mouse DPP1 Enzyme IC50 Assay
Test articles are applied to active mouse DPP1 enzyme (R&D Systems; Minneapolis, MN) in Assay Buffer (50 mM MES pH 5.5, 50 mM NaCl, 5 mM DTT) in a total reaction volume of 125 μL. 25 μL of compound in Assay Buffer plus 5% DMSO is first added to 50 μL of active mouse DPP1 enzyme at a concentration of 62.5 pg/μL and allowed to pre-incubate for 10 minutes at 37° C. after which 50 μL of 1000 μM H-Gly-Arg-AMC substrate (Bachem; St. Torrance, CA) is added, giving final substrate concentration of 400 μM and a final DMSO concentration of 1%. Substrate cleavage is measured for 90 minutes at 37° C., with fluorescence at Excitation/Emission 350/450 nm measured every 5 minutes. DPP1 concentration is interpolated based on its activity relative to a standard curve of recombinant active mouse DPP1 enzyme. IC50 values for each compound are calculated via the XLFit (IDBS Version 5.3.1.3) Add-On to Microsoft Excel using the four parameter fit equation y=(A+((B-A)/(1+((C/x)^D)))), which appears as equation number 205 (4 Parameter Logistic Model or Sigmoidal Dose-Response Model) in XLFit. Default constraints are used for each Parameter. IC50 is defined as the compound concentration at which 50% of enzyme activity is inhibited when compared to the no-compound control.

DPP1 [2] = biological target: T1, DPP1; test: Cell Assay (DPP1 IC50 values, Table 2); format: cell-based; conditions: method not described
Target sequence in this assay (P53634 25-463): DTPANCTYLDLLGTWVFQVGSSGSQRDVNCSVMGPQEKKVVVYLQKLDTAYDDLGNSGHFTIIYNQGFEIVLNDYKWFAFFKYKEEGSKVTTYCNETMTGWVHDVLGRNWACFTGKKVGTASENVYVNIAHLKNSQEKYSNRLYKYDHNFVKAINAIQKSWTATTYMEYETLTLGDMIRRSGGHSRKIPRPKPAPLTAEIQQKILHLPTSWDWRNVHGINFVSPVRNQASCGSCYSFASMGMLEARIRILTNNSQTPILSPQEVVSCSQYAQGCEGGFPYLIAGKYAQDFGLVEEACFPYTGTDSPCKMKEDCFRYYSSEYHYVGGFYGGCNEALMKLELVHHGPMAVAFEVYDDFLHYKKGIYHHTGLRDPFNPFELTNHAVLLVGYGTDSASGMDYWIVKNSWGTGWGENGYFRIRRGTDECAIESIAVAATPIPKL

T2 sequence (P97821 25-134 limits assumed): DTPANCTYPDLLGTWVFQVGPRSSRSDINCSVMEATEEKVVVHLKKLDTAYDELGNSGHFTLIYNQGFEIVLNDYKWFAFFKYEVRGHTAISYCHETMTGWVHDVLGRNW
T2 sequence (P97821 231-393 limits assumed): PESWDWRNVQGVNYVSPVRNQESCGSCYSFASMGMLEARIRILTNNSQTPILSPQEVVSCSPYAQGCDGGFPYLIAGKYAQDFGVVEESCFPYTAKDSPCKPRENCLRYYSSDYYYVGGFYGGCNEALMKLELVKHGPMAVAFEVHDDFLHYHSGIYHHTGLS
T2 sequence (P97821 394-462 limits assumed): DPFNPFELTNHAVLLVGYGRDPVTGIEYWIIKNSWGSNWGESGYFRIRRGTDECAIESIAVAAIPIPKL

IC50 (DPP1 [1]) [nM] | IC50 (active mouse DPP1 enzyme) [nM] | IC50 (DPP1 [2]) [nM] | SMILES
≥ 15 | – | – | Cn1c(=O)oc2ccc(C34CC(C[C@@H](C#N)NC(=O)[C@@H]5CNCCCO5)(C3)C4)cc21 [Compound 101d]
≥ 15 | – | – | Cn1c(=O)oc2ccc(-c3cc4ccc(C[C@@H](C#N)NC(=O)C5CNCCCO5)cc4s3)cc21 (stereo partly shown) [Compound 112b]
≥ 15 | ≥ 20 | ≥ 1.5 | Cn1c(=O)oc2ccc(-c3ccc4cc(C[C@@H](C#N)NC(=O)[C@@H]5CNCCCO5)sc4c3)cc21 [Compound 113b]
≥ 15 | ≥ 20 | ≥ 1.5 | Cn1c(=O)oc2ccc(-c3ccc4sc(C[C@@H](C#N)NC(=O)C5CNCCCO5)cc4c3)cc21 (stereo partly shown) [Compound 114b]
≥ 15 | ≥ 20 | ≥ 1.5 | Cn1c(=O)oc2ccc(-c3ccc4sc(C[C@@H](C#N)NC(=O)[C@@H]5CNCCCO5)c(F)c4c3)cc21 [Compound 115b]
≥ 15 | ≥ 20 | ≥ 1.5 | Cn1c(=O)oc2ccc(-c3cc4sc(CC(C#N)NC(=O)[C@@H]5CNCCCO5)cc4s3)cc21 (stereo partly drawn) [Compound 118b, (2S)—N-(1-cyano-2-(5-(3-methyl-2-oxo-2,3-dihydrobenzo[d]oxazol-5-yl)thieno[3,2-b]thiophen-2-yl)ethyl)-1,4-oxazepane-2-carboxamide]
≥ 15 | – | ≥ 1.5 | Cn1c(=O)oc2ccc(-c3ccc4cc(CC(C#N)NC(=O)[C@@H]5CNCCCO5)[nH]c4c3)cc21 (stereo partly drawn) [Compound 128b, (2S)—N-(1-cyano-2-(6-(3-methyl-2-oxo-2,3-dihydrobenzo[d]oxazol-5-yl)-1H-indol-2-yl)ethyl)-1,4-oxazepane-2-carboxamide]
≥ 15 | – | ≥ 1.5 | Cn1c(=O)oc2ccc(-c3ccc4c(F)c(C[C@@H](C#N)NC(=O)[C@@H]5CNCCCO5)sc4c3)cc21 [Compound 130b]
≥ 15 | – | ≥ 1.5 | Cn1c(=O)oc2ccc(-c3cc4cc(C[C@@H](C#N)NC(=O)C5CNCCCO5)ccc4s3)cc21 (stereo partly shown) [Compound 131b]
≥ 15 | – | ≥ 1.5 | Cn1c(=O)oc2ccc(-c3ccc4cc(CC(C#N)NC(=O)[C@@H]5CNCCCO5)ccc4c3)cc21 (stereo partly drawn) [Compound 133b, (2S)—N-{1-cyano-2-[6-(3-methyl-2-oxo-1,3-benzoxazol-5-yl)naphthalen-2-yl]ethyl}-1,4-oxazepane-2-carboxamide]
≥ 15 | – | ≥ 1.5 | Cn1c(=O)oc2ccc(-c3cc4ccc(C[C@@H](C#N)NC(=O)[C@@H]5CNCCCO5)c(F)c4s3)cc21 [Compound 134a]
≥ 15 | – | ≥ 1.5 | CCN1C(=O)Cc2ccc(-c3cc4sc(C[C@@H](C#N)NC(=O)[C@@H]5CNCCCCO5)cc4s3)cc21 [Compound 138b, (2S)—N-[(1S)-1-cyano-2-[5-(1-ethyl-2-oxo-3H-indol-6-yl)thieno[3,2-b]thiophen-2-yl]ethyl]-1,4-oxazocane-2-carboxamide]
≥ 15 | – | ≥ 1.5 | CCN1C(=O)Cc2ccc(-c3cc4sc(C[C@H](C#N)NC(=O)[C@@H]5CNCCCCO5)cc4s3)cc21 [Compound 138c, (2S)—N-[(1R)-1-cyano-2-[5-(1-ethyl-2-oxo-3H-indol-6-yl)thieno[3,2-b]thiophen-2-yl]ethyl]-1,4-oxazocane-2-carboxamide]
≥ 15 | – | ≥ 1.5 | Cn1c(=O)oc2ccc(-c3cc4sc(C[C@@H](C#N)NC(=O)[C@@H]5CNCCCCO5)cc4s3)cc21 [Compound 139b, (2S)—N-[(1S)-1-cyano-2-[5-(3-methyl-2-oxo-1,3-benzoxazol-5-yl)thieno[3,2-b]thiophen-2-yl]ethyl]-1,4-oxazocane-2-carboxamide]
≥ 15 | – | ≥ 1.5 | Cn1c(=O)oc2ccc(-c3cc4sc(C[C@H](C#N)NC(=O)[C@@H]5CNCCCCO5)cc4s3)cc21 [Compound 139c, (2S)—N-[(1R)-1-cyano-2-[5-(3-methyl-2-oxo-1,3-benzoxazol-5-yl)thieno[3,2-b]thiophen-2-yl]ethyl]-1,4-oxazocane-2-carboxamide]
5 to 15 | – | ≥ 1.5 | CO[C@@H]1CCNC[C@@H](C(=O)N[C@H](C#N)Cc2cc3sc(-c4ccc5oc(=O)n(C)c5c4)cc3s2)OC1 [Compound 142b]
